From patent publication US4590209A, “Alkoxy-acyl carnitines and pharmaceutical compositions containing same” (Sigma-Tau Industrie Farmaceutiche Riunite S.p.A., priority 1980, dated 1986)
Where a name gives a salt, the structure may show the parent alone.

Assays:
[1] = Acute toxicity (LD50), Weil method; conditions: mouse, in vivo, ip; mice, intraperitoneal; read-out: i.p. LD50
Text: Acute toxicity was investigated by using the method disclosed by Weil C. S. in "Tables for convenient calculation of median-effective dose (LD50 or ED50) and instructions in their use", Biometrics, 249-253, 1952.
The tolerance of the compounds under examination was investigated in mice after administration by the intraperitoneal or oral route. […] (see the Table).

adrenaline = assay: Adrenaline-antagonizing effect (adrenaline-induced mortality); type: in vivo, male Albino Swiss mice; conditions: mice, adrenaline after 30 minutes, mortality checked for 36 hours
Description: Groups of ten male Albino Swiss mice, weighing 12-22 g, were intraperitoneally administered either with the compounds of the present invention or with saline (control) and, after 30 minutes, with adrenaline (treated) at a dose capable of bringing about death to 100% of the control animals due to ventricular fibrillation and cardiac lesions ensuing from increase in frequency, pressure and oxygen uptake from the myocardium.
Mortality was checked for 36 hours and the effect of the compounds expressed as percentage of surviving animals, is shown in the Table.

rabbit isolated heart = assay: Inotropic effect on isolated rabbit heart (Langendorff) after anoxia; conditions: dose 10^-5 gl^-1, 10 minutes from the interruption of the anoxic period, percentage increase against controls
Description: Rabbit hearts isolated by the Langendorff method were perfused with oxygenized Ringer solution at 38.2° C. The isometric contractions, electrogardiogram and coronary flow were recorded using a "Battaglia-Rangoni" polygraph. By removing the oxygen from the perfusion fluid, metabolic damage was induced in the cardiac muscle, up to an 80% reduction in the cardiac contractile force.
Under these conditions of prolonged anoxia the aerobic glycolysis of the myocardium is slowed down, accompanied by the storage of acid catabolites due to both the accumulation of pyruvic acid and its conversion to lactic acid which cannot be utilized because of the depression of pyridine enzymes, such as LDH (lactodehydogenase). This has repercussions on the anaerobic glycolysis affecting an ever increasing number of enzymes, accompanied by a progressive and increasingly critical exhaustion of the myocardium. Thus a whole series of cardiac muscle fatigue levels occurs which can be observed by the behavior of the examined parameters, namely the contractile force, coronary flow, heart rate and cardiac rhythm. As soon as the contractile force was reduced by 80%, the perfusion fluid was once again oxygenized either without adding other compounds (controls) or with the addition of the compounds under examination.
In the Table there are shown the percentage value of increase against the controls.

mice = assay: Antiarrhythmic / antifibrillatory effect, aconitine-induced arrhythmia (Nwangwu et al.); type: in vivo
Description: In order to evaluate the antiarrhythmic activity of the carnitine derivatives of this invention studied with in vivo tests in addition to and in comparison with the currently employed in vitro tests, the method disclosed by Nwangwu et al. (Arch. Inc. Pharmacodyn., 1977, 229, 219) was used.
According to this method an aconitine solution is injected into the caudal vein of mice and the onset time of arrhythmia and tachycardia after 2 to 60 minutes from administration of the compounds under examination is recorded.
The antiarrhythmic activity calculated from the increase in the latency time of the onset of the arrhythmias of the treated animals in comparison with the controls, is illustrated in the Table.

CCOCCC(=O)OC(CC(=O)O)C[N+](C)(C)C (centres unmarked) [R = 3-ethoxypropionyl, 3-ethoxypropionyl carnitine hydrochloride]
LD50 [1]: 1300 mg/kg | Antiadrenaline activity, % mortality reduction (adrenaline; dose 450 mg kg^-1 i.p.): 75% | Inotropic effect, % of controls (rabbit isolated heart): +95% | Antifibrillatory activity, % reduction (mice; dose 300 mg kg^-1 i.v.): 80%

COCCCC(=O)OC(CC(=O)O)C[N+](C)(C)C (centres unmarked) [R = 4-methoxybutyryl, 4-methoxybutyryl carnitine]
LD50 [1]: 1850 mg/kg | Antiadrenaline activity, % mortality reduction (adrenaline; dose 50 mg kg^-1 i.p.): 78% | Inotropic effect, % of controls (rabbit isolated heart): +85% | Antifibrillatory activity, % reduction (mice; dose 25 mg kg^-1 i.v.): 85%
